Active and inactive are the calls of the source.
Legend:
[1] = target: Eukaryotic translation initiation factor 4H (Homo sapiens, UniProt Q15056); experiment: human eIF4H binding inhibitors, primary screen, translation initiation inhibitor project, biochemical, uHTS, fluorescence polarization (AID 2012)
[2] = target: Polyadenylate-binding protein 1 (Homo sapiens, UniProt P11940); experiment: PABP poly(A) RNA binding inhibitors, primary screen, biochemical, fluorescence polarization, uHTS (AID 2014)
[3] = target: DNA dC->dU-editing enzyme APOBEC-3A (Homo sapiens, UniProt P31941); experiment: Dose Response confirmation of small molecule APOBEC3A DNA Deaminase Inhibitors via a fluorescence-based single-stranded DNA deaminase assay. [Related pubchem assays (depositor defined):AID493011, AID493024]; assay type: functional
[4] = target: DNA dC->dU-editing enzyme APOBEC-3G (Homo sapiens, UniProt Q9HC16); assay type: functional;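 note: Dose-response counterscreen measuring inhibition of APOBEC3G DNA deaminase activity, run while confirming APOBEC3A inhibitors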
[5] = target: FAD-linked sulfhydryl oxidase ALR (Homo sapiens, UniProt P55789); experiment: inhibitors of human ALR sulfhydryl oxidase, dose response, biochemical, H2O2 detection, luminescence, cherry-pick (AID 493248)
[6] = target: T1, Rac GTPase-activating protein 1 (Homo sapiens, UniProt Q9H0H5); experiment: MgcRacGAP GTPase-activating activity inhibitors, confirmation, biochemical, ADP Hunter fluorescence, primary and confirmatory (AID 624330); assay type: functional
T1 sequence (Q9H0H5 whole entry): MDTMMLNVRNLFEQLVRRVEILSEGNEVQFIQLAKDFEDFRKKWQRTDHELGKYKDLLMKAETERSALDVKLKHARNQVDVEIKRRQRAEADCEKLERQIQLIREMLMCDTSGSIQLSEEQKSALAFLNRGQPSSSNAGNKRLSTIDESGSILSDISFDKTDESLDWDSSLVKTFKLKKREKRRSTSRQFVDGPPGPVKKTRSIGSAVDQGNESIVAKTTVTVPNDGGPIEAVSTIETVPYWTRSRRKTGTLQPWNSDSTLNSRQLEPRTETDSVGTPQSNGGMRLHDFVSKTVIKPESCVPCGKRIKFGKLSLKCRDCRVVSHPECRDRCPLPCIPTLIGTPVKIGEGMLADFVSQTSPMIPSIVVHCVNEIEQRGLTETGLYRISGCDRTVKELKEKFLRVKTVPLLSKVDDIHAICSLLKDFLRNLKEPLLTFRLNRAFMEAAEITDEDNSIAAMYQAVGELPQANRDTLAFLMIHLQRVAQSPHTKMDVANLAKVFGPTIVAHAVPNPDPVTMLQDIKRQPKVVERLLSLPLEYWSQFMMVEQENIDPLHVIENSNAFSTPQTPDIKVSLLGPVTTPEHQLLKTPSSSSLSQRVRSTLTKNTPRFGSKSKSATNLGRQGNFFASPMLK

[7] = inhibitors of Vif binding to APOBEC3G peptide, primary screen, biochemical, TR-FRET, GST-Vif 1-94, biotin-A3G peptide, dose response retest (AID 1117319); assay type: functional;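 note: TR-FRET signal of purified GST-Vif binding a biotinylated A3G peptide; inhibitors lower the FRET signal by blocking Vif and A3G binding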
Estrogen receptor = target: T2, Estrogen receptor (Homo sapiens, UniProt P03372);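 note: potency for inhibiting coactivator peptide recruitment to the receptor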
T2 sequence (P03372 whole entry): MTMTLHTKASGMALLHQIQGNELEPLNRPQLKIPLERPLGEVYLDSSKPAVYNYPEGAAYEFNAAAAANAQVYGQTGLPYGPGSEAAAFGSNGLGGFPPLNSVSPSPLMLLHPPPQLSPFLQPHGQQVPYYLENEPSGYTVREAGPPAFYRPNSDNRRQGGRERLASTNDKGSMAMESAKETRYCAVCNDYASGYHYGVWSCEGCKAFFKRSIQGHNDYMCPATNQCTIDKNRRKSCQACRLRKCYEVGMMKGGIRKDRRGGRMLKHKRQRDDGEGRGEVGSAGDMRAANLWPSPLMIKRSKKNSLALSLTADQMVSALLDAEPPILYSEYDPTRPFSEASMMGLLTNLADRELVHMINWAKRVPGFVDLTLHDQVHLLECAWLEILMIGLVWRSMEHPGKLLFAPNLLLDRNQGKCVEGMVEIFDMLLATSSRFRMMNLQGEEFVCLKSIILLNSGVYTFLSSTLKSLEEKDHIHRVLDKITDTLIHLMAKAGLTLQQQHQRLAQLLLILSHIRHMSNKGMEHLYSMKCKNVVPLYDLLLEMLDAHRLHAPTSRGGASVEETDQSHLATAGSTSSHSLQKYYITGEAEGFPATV

Aminopeptidase N = target: T3, Aminopeptidase N (Plasmodium falciparum FcB1/Columbia, UniProt O96935); experiment: P. falciparum M1AAP inhibitors, biochemical, fluorogenic H-Leu-NHMec substrate, 1536-well (AID 1445); parameters: species or system Plasmodium falciparum 3D7, 3D7
T3 sequence (O96935 whole entry): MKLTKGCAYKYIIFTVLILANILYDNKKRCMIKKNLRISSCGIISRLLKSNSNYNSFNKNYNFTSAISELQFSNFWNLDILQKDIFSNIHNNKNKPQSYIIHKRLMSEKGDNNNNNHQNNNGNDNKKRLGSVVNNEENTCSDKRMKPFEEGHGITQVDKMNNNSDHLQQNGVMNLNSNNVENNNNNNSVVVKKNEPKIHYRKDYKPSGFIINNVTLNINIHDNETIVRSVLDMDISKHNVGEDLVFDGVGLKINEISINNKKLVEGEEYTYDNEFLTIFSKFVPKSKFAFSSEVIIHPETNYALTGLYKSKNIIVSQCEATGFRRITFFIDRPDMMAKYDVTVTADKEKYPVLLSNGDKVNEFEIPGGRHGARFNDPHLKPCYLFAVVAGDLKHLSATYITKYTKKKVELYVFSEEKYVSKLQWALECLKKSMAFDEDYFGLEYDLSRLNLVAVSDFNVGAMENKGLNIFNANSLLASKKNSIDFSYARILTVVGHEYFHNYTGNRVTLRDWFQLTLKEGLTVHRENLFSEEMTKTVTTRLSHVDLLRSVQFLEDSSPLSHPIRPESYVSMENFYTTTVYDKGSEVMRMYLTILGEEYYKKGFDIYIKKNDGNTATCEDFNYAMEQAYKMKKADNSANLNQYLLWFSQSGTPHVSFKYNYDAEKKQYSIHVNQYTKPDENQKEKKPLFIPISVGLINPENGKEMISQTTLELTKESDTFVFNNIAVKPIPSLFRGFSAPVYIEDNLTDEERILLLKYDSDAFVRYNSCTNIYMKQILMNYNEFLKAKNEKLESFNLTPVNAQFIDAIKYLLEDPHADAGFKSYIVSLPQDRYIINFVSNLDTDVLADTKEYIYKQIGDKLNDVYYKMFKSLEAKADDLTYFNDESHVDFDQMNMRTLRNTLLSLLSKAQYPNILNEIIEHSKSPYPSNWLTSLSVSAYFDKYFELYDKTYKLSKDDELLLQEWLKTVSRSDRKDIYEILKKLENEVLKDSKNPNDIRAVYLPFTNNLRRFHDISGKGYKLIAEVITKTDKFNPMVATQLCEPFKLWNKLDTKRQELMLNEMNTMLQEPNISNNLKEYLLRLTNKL

Large T antigen = Large T antigen (Simian virus 40, UniProt P03070); assay type: functional, Betapolyomavirus macacae;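 note: Confirmatory-stage PubChem screen for compounds that inhibit SV40 T antigen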
Prothrombin = Prothrombin (Homo sapiens, UniProt P00734); experiment: Thrombin 1536 HTS Dose Response Confirmation. [Related pubchem assays: 1046 (Thrombin 1536 HTS; hits were confirmed in this assay)]; assay type: functional
[8] = target: T4, Aryl hydrocarbon receptor (Homo sapiens, UniProt P35869); experiment: Luminescence-based cell-based high throughput dose response assay for activators of the Aryl Hydrocarbon Receptor (AHR). [Related pubchem assays: 2796 (Primary screen (AHR activators in singlicate)), 2845 (Confirmation screen (AHR activators in triplicate)), 434939 (Counterscreen (PXR activators in triplicate)), 2804 (Summary (AHR activators))]; assay type: ADME
T4 sequence (P35869 whole entry): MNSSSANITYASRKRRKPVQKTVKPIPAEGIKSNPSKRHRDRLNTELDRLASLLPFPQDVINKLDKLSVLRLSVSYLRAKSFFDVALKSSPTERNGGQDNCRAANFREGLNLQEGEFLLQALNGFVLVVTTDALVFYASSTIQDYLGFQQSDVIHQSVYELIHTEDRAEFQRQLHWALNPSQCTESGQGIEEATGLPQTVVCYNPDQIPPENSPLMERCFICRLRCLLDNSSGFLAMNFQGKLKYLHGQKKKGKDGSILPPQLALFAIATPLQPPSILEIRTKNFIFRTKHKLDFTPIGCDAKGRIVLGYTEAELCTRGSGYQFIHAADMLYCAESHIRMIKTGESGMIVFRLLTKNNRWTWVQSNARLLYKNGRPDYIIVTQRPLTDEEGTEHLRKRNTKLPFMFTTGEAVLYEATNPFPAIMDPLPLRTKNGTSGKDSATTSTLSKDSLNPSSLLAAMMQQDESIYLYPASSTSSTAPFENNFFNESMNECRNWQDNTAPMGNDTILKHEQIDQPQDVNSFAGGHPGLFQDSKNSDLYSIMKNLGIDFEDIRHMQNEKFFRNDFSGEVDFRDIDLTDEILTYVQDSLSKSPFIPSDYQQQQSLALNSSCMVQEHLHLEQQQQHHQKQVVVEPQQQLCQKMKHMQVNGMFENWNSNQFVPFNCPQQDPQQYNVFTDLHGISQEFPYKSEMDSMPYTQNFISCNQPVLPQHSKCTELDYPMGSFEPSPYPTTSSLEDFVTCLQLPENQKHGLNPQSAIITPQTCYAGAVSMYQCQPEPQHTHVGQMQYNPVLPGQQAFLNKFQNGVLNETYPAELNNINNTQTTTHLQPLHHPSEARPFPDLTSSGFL

Hexokinase HKDC1 = target: T5, Hexokinase HKDC1 (Homo sapiens, UniProt Q2TB90); experiment: HKDC1 hexokinase inhibitors, dose response, biochemical, W721R variant (AID 504729); assay type: functional
T5 sequence (Q2TB90 whole entry): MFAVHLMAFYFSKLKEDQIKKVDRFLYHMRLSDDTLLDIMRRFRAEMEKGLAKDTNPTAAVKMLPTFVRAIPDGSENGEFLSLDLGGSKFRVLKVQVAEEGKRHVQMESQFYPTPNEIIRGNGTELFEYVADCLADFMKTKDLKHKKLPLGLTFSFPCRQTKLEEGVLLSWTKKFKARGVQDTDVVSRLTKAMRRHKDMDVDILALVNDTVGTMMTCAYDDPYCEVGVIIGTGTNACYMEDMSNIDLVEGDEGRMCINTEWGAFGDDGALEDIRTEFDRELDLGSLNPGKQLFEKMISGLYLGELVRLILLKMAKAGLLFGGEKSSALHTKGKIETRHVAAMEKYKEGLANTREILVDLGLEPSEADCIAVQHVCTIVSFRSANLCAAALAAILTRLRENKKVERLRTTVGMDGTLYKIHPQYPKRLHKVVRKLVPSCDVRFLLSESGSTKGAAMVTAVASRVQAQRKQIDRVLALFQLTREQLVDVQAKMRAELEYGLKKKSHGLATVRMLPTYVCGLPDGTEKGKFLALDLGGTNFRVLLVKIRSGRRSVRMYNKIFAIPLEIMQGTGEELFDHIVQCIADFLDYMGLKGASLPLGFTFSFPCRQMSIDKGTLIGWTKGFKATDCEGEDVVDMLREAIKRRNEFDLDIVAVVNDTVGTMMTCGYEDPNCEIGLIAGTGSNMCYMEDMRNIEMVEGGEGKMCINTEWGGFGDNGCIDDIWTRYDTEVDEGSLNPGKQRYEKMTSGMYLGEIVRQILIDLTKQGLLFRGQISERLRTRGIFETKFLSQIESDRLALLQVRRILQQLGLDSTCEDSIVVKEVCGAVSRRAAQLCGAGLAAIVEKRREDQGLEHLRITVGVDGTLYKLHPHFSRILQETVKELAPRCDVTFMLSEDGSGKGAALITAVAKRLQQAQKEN

H9c2 = experiment: cells; assay type: functional, cell-based; settings: Rattus norvegicus, H9c2, Myocardium
[9] = NIH-3T3 fibroblast cytotoxicity, dose response, cytotoxicity control, cell-based, fluorescence, Alamar Blue, secondary assay (AID 2327); assay type: functional;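 note: NIH-3T3 mouse fibroblasts cultured with fluconazole at 8 µg/mL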
[10] = C. albicans growth with fluconazole, confirmation, fluorescence, retest (AID 2467); assay type: functional, cell-based
Nonstructural protein 1 = Nonstructural protein 1 (Influenza A virus, UniProt Q194T2); assay type: functional, Influenza A virus (A/California/07/2009(H1N1))
Sequence of Nonstructural protein 1 (Q194T2 whole entry): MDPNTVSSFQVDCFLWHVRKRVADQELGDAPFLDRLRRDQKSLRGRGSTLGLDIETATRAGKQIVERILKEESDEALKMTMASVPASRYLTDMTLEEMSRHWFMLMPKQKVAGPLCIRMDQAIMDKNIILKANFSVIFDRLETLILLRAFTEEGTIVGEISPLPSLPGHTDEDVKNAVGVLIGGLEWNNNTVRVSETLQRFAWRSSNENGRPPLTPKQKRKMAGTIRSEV

Sequence of Polyadenylate-binding protein 1 (P11940 whole entry): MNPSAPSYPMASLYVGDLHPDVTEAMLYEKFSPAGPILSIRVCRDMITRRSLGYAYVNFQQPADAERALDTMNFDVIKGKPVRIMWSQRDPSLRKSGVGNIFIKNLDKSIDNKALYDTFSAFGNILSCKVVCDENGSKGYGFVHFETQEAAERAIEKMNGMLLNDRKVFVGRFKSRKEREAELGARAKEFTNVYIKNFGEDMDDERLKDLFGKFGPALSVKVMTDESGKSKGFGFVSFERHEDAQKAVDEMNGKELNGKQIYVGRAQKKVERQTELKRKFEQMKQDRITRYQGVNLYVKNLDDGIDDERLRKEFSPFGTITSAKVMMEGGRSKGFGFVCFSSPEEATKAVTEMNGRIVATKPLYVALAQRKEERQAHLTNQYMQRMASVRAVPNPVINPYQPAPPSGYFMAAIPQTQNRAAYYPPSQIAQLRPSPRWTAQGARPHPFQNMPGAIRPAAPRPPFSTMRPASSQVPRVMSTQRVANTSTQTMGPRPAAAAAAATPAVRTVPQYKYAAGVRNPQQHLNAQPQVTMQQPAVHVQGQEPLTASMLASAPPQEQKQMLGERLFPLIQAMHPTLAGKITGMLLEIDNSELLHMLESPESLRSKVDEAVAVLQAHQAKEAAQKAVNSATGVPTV
Sequence of FAD-linked sulfhydryl oxidase ALR (P55789 whole entry): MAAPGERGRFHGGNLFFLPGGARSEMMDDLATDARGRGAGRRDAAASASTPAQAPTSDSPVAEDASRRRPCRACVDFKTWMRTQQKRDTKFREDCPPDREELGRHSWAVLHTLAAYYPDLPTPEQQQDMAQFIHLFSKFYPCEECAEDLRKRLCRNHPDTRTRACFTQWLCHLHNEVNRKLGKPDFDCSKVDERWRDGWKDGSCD
Sequence of Large T antigen (P03070 whole entry): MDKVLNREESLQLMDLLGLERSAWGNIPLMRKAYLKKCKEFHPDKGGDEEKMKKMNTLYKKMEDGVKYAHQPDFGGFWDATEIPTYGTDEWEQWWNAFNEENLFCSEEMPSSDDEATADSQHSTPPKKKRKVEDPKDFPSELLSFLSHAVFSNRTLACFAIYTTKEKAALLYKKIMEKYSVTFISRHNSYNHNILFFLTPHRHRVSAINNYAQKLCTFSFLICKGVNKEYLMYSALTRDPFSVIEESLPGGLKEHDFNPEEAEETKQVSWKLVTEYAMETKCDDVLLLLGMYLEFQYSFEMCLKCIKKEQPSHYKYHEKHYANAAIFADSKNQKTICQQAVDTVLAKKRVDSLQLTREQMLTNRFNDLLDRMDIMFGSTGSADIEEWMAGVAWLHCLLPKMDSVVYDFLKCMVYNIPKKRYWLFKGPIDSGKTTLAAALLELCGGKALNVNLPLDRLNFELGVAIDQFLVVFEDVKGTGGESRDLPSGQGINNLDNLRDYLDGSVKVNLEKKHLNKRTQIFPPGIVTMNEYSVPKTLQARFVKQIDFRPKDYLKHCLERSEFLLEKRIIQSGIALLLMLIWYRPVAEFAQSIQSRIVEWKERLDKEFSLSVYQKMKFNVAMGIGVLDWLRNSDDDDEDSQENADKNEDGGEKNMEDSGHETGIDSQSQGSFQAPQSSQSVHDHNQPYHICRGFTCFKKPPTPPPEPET
Sequence of DNA dC->dU-editing enzyme APOBEC-3A (P31941 whole entry): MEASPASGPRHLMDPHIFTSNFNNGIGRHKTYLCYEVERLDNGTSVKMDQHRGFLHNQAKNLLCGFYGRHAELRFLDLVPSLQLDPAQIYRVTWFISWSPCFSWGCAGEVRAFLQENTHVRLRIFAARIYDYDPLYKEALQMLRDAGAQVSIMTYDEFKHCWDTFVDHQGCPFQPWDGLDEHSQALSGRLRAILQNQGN
Sequence of DNA dC->dU-editing enzyme APOBEC-3G (Q9HC16 whole entry): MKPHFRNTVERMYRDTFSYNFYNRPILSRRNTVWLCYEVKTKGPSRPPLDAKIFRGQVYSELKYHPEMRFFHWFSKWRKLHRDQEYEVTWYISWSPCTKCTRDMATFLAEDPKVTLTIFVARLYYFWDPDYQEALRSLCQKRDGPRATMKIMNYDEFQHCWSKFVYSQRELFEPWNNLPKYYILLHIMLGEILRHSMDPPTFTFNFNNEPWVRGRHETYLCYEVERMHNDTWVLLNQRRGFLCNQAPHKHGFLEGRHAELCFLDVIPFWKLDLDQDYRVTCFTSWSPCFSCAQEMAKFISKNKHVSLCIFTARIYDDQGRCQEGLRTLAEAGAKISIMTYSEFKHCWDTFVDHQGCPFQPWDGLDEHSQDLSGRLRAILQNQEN

## COc1ccc(N(CC(=O)N2CCCCCC2)S(=O)(=O)c2ccccc2[N+](=O)[O-])c(OC)c1
[1]
  IC50: > 100 µM (inactive)
[2]
  IC50: 11.9 µM (active)
[3]
  IC50: 5.63 µM (active)
[4]
  IC50: 4.83 µM (active)

## CCN(CC)c1ccc(NC(=O)c2ccc(Br)o2)cc1
[5]
  AC50: 0.745 µM (active)
[6]
  IC50: 25.9 µM (active)
[7]
  IC50: > 100 µM (active)

## COc1cc(-c2nnc(-c3ccc(S(=O)(=O)c4ccccc4)cc3)o2)cc(OC)c1OC
Estrogen receptor
  IC50: > 50 µM (not active)

## O=C(Nc1nc2ccccc2s1)c1cc2c(s1)-c1ccccc1OC2
Estrogen receptor
  IC50: > 50 µM (not active)

## COc1cc(/C=C2\SC(=S)N(C(Cc3ccccc3)C(=O)O)C2=O)ccc1O (stereo unspecified)
Aminopeptidase N
  IC50: 42.3 µM (active)
Large T antigen
  IC50: 65 µM (active)

## CCC(=O)n1nc(-c2ccc(Cl)cc2)nc1SC
Prothrombin
  IC50: 7.14 µM (active)

## Nc1nncn1C(=O)CCc1ccccc1
Prothrombin
  IC50: 0.605 µM (active)

## COc1ccccc1NC(=O)C1C2CCCCC21 (stereo unspecified)
Prothrombin
  IC50: > 50 µM (not active)

## Cn1c(N)c(C(=O)Nc2ccccc2F)sc1=S
[8]
  EC50: 0.857 µM (active)

## C[n+]1cnn2c1SCC1(COC1)C2
[1]
  IC50: > 100 µM (inactive)
[2]
  IC50: 4.59 µM (active)

## CCCS(=O)(=O)N1CCC(C(=O)NCc2ccc(F)cc2)CC1
Aminopeptidase N
  IC50: 31.6 µM (active)

## COC(=O)C1CC(=O)c2ccsc2C1 (stereo unspecified)
Prothrombin
  IC50: > 50 µM (not active)

## COc1cc(/C=C2/C(=O)NN(c3ccc(Cl)c(Cl)c3)C2=O)cc([N+](=O)[O-])c1O
Large T antigen
  IC50: 12.5 µM (active)
[5]
  AC50: 0.409 µM (active)
Hexokinase HKDC1
  IC50: 32.5 µM (inactive)

## Cc1cc(C(F)F)n2ncc(C(=O)NCCc3ccc(Cl)cc3)c2n1
Hexokinase HKDC1
  IC50: 12.7 µM (active)

## CC(=O)n1cc(/C=N/NC(=O)c2sc(C)nc2C)c2ccccc21
[8]
  EC50: > 91.7 µM (not active)
H9c2
  IC50: > 79 µM (inactive)

## Cn1c(=O)c2c(nc(/C=C/c3cccc(Cl)c3)n2C)n(C)c1=O
[8]
  EC50: 3.34 µM (active)

## Oc1ccc(/C=N/N(c2ccccc2)c2ccccc2)c(O)c1O
[9]
  EC50: > 160 µM (inactive)
[1]
  IC50: 31.7 µM (active)
[10]
  EC50: > 38 µM (not active)
[2]
  IC50: > 100 µM (inactive)
Nonstructural protein 1
  IC50: 47.6 µM (active)

— ChEMBL document CHEMBL1201862, “PubChem BioAssay data set” (2004)
